Experiment: In vitro hydrolysis in Aldrich buffer at 100° C., monitored by TLC for disappearance of starting material
Format: physicochemical
Excerpt: In Vitro Hydrolysis of Functionalized Aromatics
A compound and a polymer of the present invention were examined for their rates of hydrolysis as described below.

With COC(=O)COC(=O)COc1ccc(C(=O)OCC(=O)OC)cc1 [Example 14, 4-Methoxycarbonylmethoxycarbonylmethoxy-benzoic acid methoxycarbonyl methyl ester] the “Hydrolyzed in (time to hydrolysis)” value (100 mg in 10 mL Aldrich pH 7.4 buffer) was “Hydrolyzed in 26.5 hours” and the “Hydrolyzed in (time to hydrolysis)” value (100 mg in 10 mL Aldrich pH 9 buffer, 1% solution) was “Hydrolyzed in 5 hours”.

Source: US8007526B2, “Difunctionalized aromatic compounds and polymers therefrom” (Bezwada Biomedical, LLC, priority 2005, dated 2011)
